Test results taken from patent US8901313B2, “6,5-heterocyclic propargylic alcohol compounds and uses therefor” (Genentech, Inc., priority 2011, dated 2014).

Columns and labels:
[1] = tested on: human embryonic kidney 293 cells; experiment: 293-NIK TK Renilla Luciferase reporter (general measure of cell viability); type: cell-based; conditions: HEK293, 293 cells, constitutive Renilla luciferase, 24 hours, read-out: inhibitory value (IC50) for 293-NIK TK Renilla Luciferase activity
Excerpt: (§1) (1) The first assay was used to profile whether a test compound can inhibit the NF-kB signally through NIK inhibition without affecting cell viability. In this assay, human embryonic kidney 293 cells was stably transfected with a tetracycline-inducible NIK DNA construct containing a cytomegalovirus promoter plus two reporter DNA constructs. One reporter encoded firefly luciferase under the control of three repeats of an NF-kB response element from the ELAM-1 gene and reflects the level of NIK activity in the cells, whereas the other reporter constitutively expressed Renilla luciferase under the control of the herpes simplex virus thymidine kinase promoter and served as a general measure of cell viability. Cells were incubated with different concentrations of compounds (0.2% DMSO final) in medium containing 1 ug/mL doxycycline and 10% tet-system approved fetal bovine serum (Clontech) for 24 hours, after which the reporters' signals were detected using the Dual Glo luciferase detection system (Promega) according to the vendor's protocol. The compounds listed in Table 1 have the corresponding inhibitory value (IC50 in micromolar) for 293-NIK NF-kB-Luciferase activity (values for compounds are presented in the same order as found in Table 1): na, 0.059, na, na, na, 0.105, 0.027, na, 20, 1.2, na, 1.8, 0.0231, 0.879, 0.0361, 0.582, na, 0.142, na, 0.403, 0.059, 0.0331, na, na, 0.0573, 1.5, na, na, 0.0722, na, na, 0.589, 12.7, 3.7, 14.9, na, 0.707, 1, 0.0311, 0.332, 0.309, 0.0142, 0.051, 2.8, 0.129, na, na, 1.5, na, na, na, 1.3, 0.062, 20, 0.31, 0.104, 0.091, 0.037, 0.085, 0.279, na, 0.305, 0.064, 0.332, 0.133, 0.168, 0.217, 0.553, na and na.
The compounds in listed in Table 1 have the corresponding inhibitory value (IC50 in micromolar) for 293-NIK TK Renilla Luciferase activity: (values for compounds are presented in the same order as found in Table 1): 6.4, 3.6, 20, na, 1.6, 9.3, 18.5, na, na, 2.6, na, na, na, na, na, na, na, na, na, na, na, na, na, na, na, na, na, na, na, na, na, na, na, na, na, na, na, na, na, na, na, na, na, na, na, na, na, >20, na, na, na, 20, >20, 17, 1.3, 15.6, 0.967, 2.7, 11.2, 5.1, na, 20, 20, 20, 20, 20, 17.6, 20, na and na.

[2] = tested on: p52 (NF-kB2) nuclear translocation in HeLa cells; experiment: NIK p52 Translocation Assay (non-classical NF-kB signaling); type: cell-based; conditions: Homo sapiens; HeLa cells, 100 ng/mL anti-lymphotoxin beta receptor antibody, 5 hours; read-out: inhibitory value (IC50) for NIK p52 Translocation Assay
Experimental: (§2) (2) A second set of cell assay was used to define the selectivity of NIK inhibitors toward inhibition of classical vs. non-classical NF-kB signaling and rely on quantification of the nuclear translocation of p52 (NF-kB2) and REL-A (p65) using high content cellular imaging. For the p52 (non-classical NF-kB signaling) nuclear translocation assay, HeLa cells were treated with different concentrations of compounds (0.2% DMSO final) in medium containing 10% fetal bovine serum and then stimulated with 100 ng/mL of an anti-lymphotoxin beta receptor antibody (R&D Systems) for 5 hours. In the REL-A nuclear translocation assay, HeLa cells were incubated with compounds (0.2% DMSO final) for 4.5 hours in medium containing 10% fetal bovine serum before stimulating them with 10 ng/mL tumor necrosis factor (TNF)-α (R&D Systems) for 30 minutes. Cells were fixed with 4% paraformaldehyde, permeabilized by adding 0.1% Triton X-100 in phosphate buffered saline, and then incubated with either 2 ug/mL anti-p52 antibody (Millipore) or 400 ng/mL anti-REL-A (p65) antibody (Santa Cruz Biotechnology). Finally, the cells were incubated with an Alexa488-labeled secondary antibody (Invitrogen) and DRAQ5 DNA stain (Biostatus). Imaging was carried out using an Opera reader (Perkin Elmer) and data are analyzed with the aid of Acapella software (Perkin Elmer). The p52 or REL-A translocation into the nucleus was quantified by the ratio of the nuclear to cytoplasmic signal intensity. The concentration of inhibitor required for 50% inhibition (IC50 values) in these cell assays were derived from the plots of signal vs. inhibitor concentration. The compounds in listed in Table 1 have the corresponding inhibitory value (IC50 in micromolar) for NIK p52 Translocation Assay (values for compounds are presented in the same order as found in Table 1, and “na” means the data for this assay is to be determined): 0.326, 0.33, na, na, na, 0.218, 0.07, na, na, na, 0.129, 7.6, 0.077, 3.4, na, 0.518, na, 0.059, 0.514, 0.127, na, na, 0.010, na, na, 0.313, 0.275, na, 0.0727, na, na, na, na, na, na, 0.194, na, 6.4, 0.22, 0.346, na, na, na and na, na, na, na, na, na, 0.447, na, 0.089, 0.479, 0.489, 0.243, 0.747, 1, na, 1.9, 0.552, 2.1, na. na, na, na, na and na.

[3] = tested on: REL-A (p65) nuclear translocation in HeLa cells; experiment: NIK RelA Translocation Assay (classical NF-kB signaling); type: cell-based; conditions: Homo sapiens; HeLa cells, compounds 4.5 hours, 10 ng/mL TNF-α 30 minutes; read-out: inhibitory value (IC50) for NIK RelA Translocation Assay
Experimental: as §2
The compounds in listed in Table 1 has the corresponding inhibitory value (IC50 in micromolar) for NIK RelA Translocation Assay (values for compounds are presented in the same order as found in Table 1): 0.326, 0.33, na, na, na, 0.218, 0.07, na, na, na, na, na, 0.129, 7.6, 0.077, 3.4, na, 0.518, na, 0.059, 0.514, 0.127, na, na, 0.010, na, na, 0.313, 0.275, na, na, 0.0727, na, na, na, na, na, na, 0.194, na, 6.4, 0.22, 0.346, na, na, na, na, na, na, na, na, na, 0.447, na, 0.089, 0.479, 0.489, 0.243, 0.747, 1, na, 1.9, 0.552, 2.1, na, na, na, na, na and na.

[4] = biological target: T1, nuclear factor-kappa B (NF-kB)-inducing kinase (NIK) (Homo sapiens, UniProt Q99558); experiment: NIK Enzyme Inhibition Assay (Transcreener ADP assay); type: biochemical; conditions: purified NIK 0.2-1 nM, 10 uM ATP, fluorescence polarization, Morrison's quadratic equation; read-out: inhibitory value (Ki) for NIK
T1 construct: made in house; host or cells: baculovirus-infected insect cells
T1 sequence (Q99558 whole entry): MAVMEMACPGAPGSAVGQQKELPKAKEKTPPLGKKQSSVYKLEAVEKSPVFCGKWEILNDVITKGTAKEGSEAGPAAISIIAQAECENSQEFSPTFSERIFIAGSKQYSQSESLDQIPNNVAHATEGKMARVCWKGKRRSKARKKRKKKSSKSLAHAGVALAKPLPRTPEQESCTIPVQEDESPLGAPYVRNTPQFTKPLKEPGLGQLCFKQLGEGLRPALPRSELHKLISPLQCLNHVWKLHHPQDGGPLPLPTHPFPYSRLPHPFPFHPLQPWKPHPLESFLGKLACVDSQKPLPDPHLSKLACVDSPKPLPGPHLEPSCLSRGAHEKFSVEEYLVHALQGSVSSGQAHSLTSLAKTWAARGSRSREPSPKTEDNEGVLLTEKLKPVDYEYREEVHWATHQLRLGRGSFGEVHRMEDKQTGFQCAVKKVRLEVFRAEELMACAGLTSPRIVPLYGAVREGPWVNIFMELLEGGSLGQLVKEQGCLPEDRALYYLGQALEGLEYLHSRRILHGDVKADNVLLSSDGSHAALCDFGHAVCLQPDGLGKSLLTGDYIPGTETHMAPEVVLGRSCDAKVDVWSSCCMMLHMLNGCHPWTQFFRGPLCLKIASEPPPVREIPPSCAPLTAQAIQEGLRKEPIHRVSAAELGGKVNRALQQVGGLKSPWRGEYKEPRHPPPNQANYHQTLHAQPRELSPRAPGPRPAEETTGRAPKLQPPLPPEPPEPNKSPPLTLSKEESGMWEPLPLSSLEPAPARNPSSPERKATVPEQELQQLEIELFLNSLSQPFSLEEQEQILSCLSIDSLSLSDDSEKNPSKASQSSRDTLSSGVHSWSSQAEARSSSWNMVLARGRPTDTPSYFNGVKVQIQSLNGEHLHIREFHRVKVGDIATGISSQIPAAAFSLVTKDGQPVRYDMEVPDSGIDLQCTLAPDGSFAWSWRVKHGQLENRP

[5] = tested on: NF-kB signaling through NIK in human embryonic kidney 293 cells; experiment: 293-NIK NF-kB-Luciferase reporter assay; type: cell-based; conditions: HEK293, 293 cells with tetracycline-inducible NIK, 1 ug/mL doxycycline, 24 hours, read-out: inhibitory value (IC50) for 293-NIK NF-kB-Luciferase activity
Excerpt: as §1

| SMILES | IC50 [3] | Ki [4] | IC50 [1] | IC50 [2] | IC50 [5] |
| --- | --- | --- | --- | --- | --- |
| CC(O)(C#Cc1ccc2cnn(-c3ccnc(N)n3)c2c1)c1nccs1 (centres unmarked) [Example T1-1, 4-(1-(2-aminopyrimidin-4-yl)-1H-indazol-6-yl)-2-(thiazol-2-yl)but-3-yn-2-ol] | 326 nM |  | 6400 nM | 326 nM |  |
| N#Cc1ccc2cnn(-c3ccnc(N)n3)c2c1 [Example T1-3, 1-(2-aminopyrimidin-4-yl)-1H-indazole-6-carbonitrile] |  |  | ≥ 20000 nM |  |  |
| Nc1nccc(-n2ncc3ccc(C#CC4(O)CCCC4)cc32)n1 [Example T1-5, 1-((1-(2-aminopyrimidin-4-yl)-1H-indazol-6-yl)ethynyl) cyclopentanol] |  |  | 1600 nM |  |  |
| CC(C)(O)C#Cc1ccc2ncn(-c3ccnc(N)n3)c2c1 [Example T1-10, 4-(1-(2-aminopyrimidin-4-yl)-1H-benzo[d]imidazol-6-yl)-2-methylbut-3-yn-2-ol] |  | 14.3 nM | 2600 nM |  | 1200 nM |
| Cc1cc(C(C)(O)C#Cc2ccc3c(C)nn(-c4ccnc(N)n4)c3c2)on1 (centres unmarked) [Example T1-48, 4-(1-(2-aminopyrimidin-4-yl)-3-methyl-1H-indazol-6-yl)-2-(3-methylisoxazol-5-yl)but-3-yn-2-ol] |  | 13 nM | > 20000 nM |  | 1500 nM |
| Cc1cc(C(C)(O)C#Cc2ccc3c(C(=O)N(C)C)nn(-c4ccnc(N)n4)c3c2)on1 (centres unmarked) [Example T1-52, 1-(2-aminopyrimidin-4-yl)-6-(3-hydroxy-3-(3-methyl-isoxazol-5-yl)but-1-ynyl)-N,N-dimethyl-1H-indazole-3-carboxamide] |  | 10 nM | ≥ 20000 nM | 89 nM | 1300 nM |
| Cc1nn(-c2ccnc(N)n2)c2cc(C#CC(C)(O)c3cncs3)ccc12 (centres unmarked) [Example T1-54, 4-(1-(2-aminopyrimidin-4-yl)-3-methyl-1H-indazol-6-yl)-2-(thiazol-5-yl)but-3-yn-2-ol] |  | 105 nM | 17000 nM | 489 nM | 20000 nM |

Now from value to compound, other results behind:

| IC50 [3] | Ki [4] | SMILES | IC50 [1] | IC50 [2] | IC50 [5] |
| --- | --- | --- | --- | --- | --- |
| 243 nM | 0.15 nM | Cc1cc(C(C)(O)C#Cc2ccc3c(C)nn(-c4ccnc(N)n4)c3c2)no1 (centres unmarked) [Example T1-58, 4-(1-(2-aminopyrimidin-4-yl)-3-methyl-1H-indazol-6-yl)-2-(5-methylisoxazol-3-yl)but-3-yn-2-ol] | 2700 nM |  | 37 nM |
| 1900 nM | 17 nM | Cc1nn(-c2ccnc(N)n2)c2cc(C#CC(C)(O)c3cnccn3)ccc12 (centres unmarked) [Example T1-62, 4-(1-(2-aminopyrimidin-4-yl)-3-methyl-1H-indazol-6-yl)-2-(pyrazin-2-yl)but-3-yn-2-ol] | ≥ 20000 nM |  | 305 nM |
| 552 nM | 0.23 nM | C[C@@](O)(C#Cc1ccc2nc(C3CC3)n(-c3ncnc(N)n3)c2c1)c1nccs1 [Example T1-63, (R)-4-(1-(4-amino-1,3,5-triazin-2-yl)-2-cyclopropyl-1H-benzo[d]imidazol-6-yl)-2-(thiazol-2-yl)but-3-yn-2-ol] | ≥ 20000 nM |  | 64 nM |
| 2100 nM | 5 nM | Cc1cc(C(C)(O)C#Cc2ccc3nc(C)n(-c4ncnc(N)n4)c3c2)no1 (centres unmarked) [Example T1-64, 4-(1-(4-amino-1,3,5-triazin-2-yl)-2-methyl-1H-benzo[d]imidazol-6-yl)-2-(5-methyl-isoxazol-3-yl)but-3-yn-2-ol] | ≥ 20000 nM |  | 332 nM |
|  | 2.65 nM | Cc1cc(C(C)(O)C#Cc2ccc3c(C(=O)N4CCOCC4)nn(-c4ccnc(N)n4)c3c2)no1 (centres unmarked) [Example T1-65, (1-(2-aminopyrimidin-4-yl)-6-(3-hydroxy-3-(5-methyl-isoxazol-3-yl)but-1-ynyl)-1H-indazol-3-yl)(morpholino) methanone] | ≥ 20000 nM |  | 133 nM |
|  | 1.27 nM | Cc1cc(C(C)(O)C#Cc2ccc3c(C(=O)N4CCCC4)nn(-c4ccnc(N)n4)c3c2)no1 (centres unmarked) [Example T1-66, (1-(2-aminopyrimidin-4-yl)-6-(3-hydroxy-3-(5-methyl-isoxazol-3-yl)but-1-ynyl)-1H-indazol-3-yl)(pyrrolidin-1-yl) methanone] | ≥ 20000 nM |  | 168 nM |
|  | 4 nM | Cc1nn(-c2ccnc(N)n2)c2cc(C#CC(C)(O)c3ncccn3)ccc12 (centres unmarked) [Example T1-67, 4-(1-(2-aminopyrimidin-4-yl)-3-methyl-1H-indazol-6-yl)-2-(pyrimidin-2-yl)but-3-yn-2-ol] | 17600 nM |  | 217 nM |
|  | 2.7 nM | COCc1nc2ccc(C#C[C@@](C)(O)c3nccs3)cc2n1-c1ncnc(N)n1 [Example T1-68, (R)-4-(1-(4-amino-1,3,5-triazin-2-yl)-2-(methoxymethyl)-1H-benzo[d]imidazol-6-yl)-2-(thiazol-2-yl)but-3-yn-2-ol] | ≥ 20000 nM |  | 553 nM |
